We go through 106 compounds from ChEMBL document CHEMBL1129278, “Binding of arylpiperazines, (aryloxy)propanolamines, and tetrahydropyridylindoles to the 5-HT1A receptor: contribution of the molecular lipophilicity potential to three-dimensional quantitative structure-affinity relationship models” (J Med Chem, 1996).

For the experiment, the target named is T1, 5-hydroxytryptamine receptor 1A (Rattus norvegicus, UniProt P19327).
T1 sequence (P19327 whole entry): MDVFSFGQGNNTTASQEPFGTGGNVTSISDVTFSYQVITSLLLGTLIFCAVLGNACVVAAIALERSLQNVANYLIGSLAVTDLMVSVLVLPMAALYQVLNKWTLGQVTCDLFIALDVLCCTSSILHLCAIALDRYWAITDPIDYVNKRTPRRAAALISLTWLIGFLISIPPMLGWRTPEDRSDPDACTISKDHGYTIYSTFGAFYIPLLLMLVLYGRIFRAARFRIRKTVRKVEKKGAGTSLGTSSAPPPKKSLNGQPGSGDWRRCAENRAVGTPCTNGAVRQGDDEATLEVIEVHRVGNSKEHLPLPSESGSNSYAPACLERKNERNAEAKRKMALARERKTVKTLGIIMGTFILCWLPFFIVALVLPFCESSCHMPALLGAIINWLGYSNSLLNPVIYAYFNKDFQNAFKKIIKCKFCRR

With `CC(C)NCC(O)COc1ccccc1` (stereo unspecified), the affinity corresponds to a Ki of 170 nM.

As to `COc1ccccc1OCC(O)CN(C)C` (stereo unspecified), the Ki (usually the dissociation constant of the complex between target and ligand, obtained from inhibition or displacement) is 3020 nM.

In the case of `CCCN(CCC)C1COc2cccc(O)c2C1` (stereo unspecified), the Ki is 2 nM.

`COc1cccc2c1CC(N1CCCCC1)CC2` (stereo unspecified) gave a Ki of 77.6 nM.

Turning to `COc1ccccc1N1CCN(CCCCNC(=O)C2CCCCC2)CC1`, the Ki was 0.603 nM.

The compound `CN(C)CCc1c[nH]c2cc3c(cc12)CCCO3` showed a Ki of 603 nM.

In turn, `CCCN(CCC)C1CCc2cccc(CO)c2C1` (stereo unspecified) had a Ki of 129 nM.

With `CCCN(CCCCCCN1C(=O)CC2(CCCC2)CC1=O)C1COc2cccc(OC)c2C1` (stereo unspecified), affinity was put at a Ki of 0.501 nM.

`COc1c(Cl)cccc1N1CCNCC1` gave a Ki of 871 nM.

In turn, `O=C1c2ccccc2C(=O)N1CCCCN1CCN(c2ccccc2)CC1` showed a Ki of 8.51 nM.

In turn, `C=CCOc1ccccc1OCC(O)CNC(C)C` (stereo unspecified) [OXPRENOLOL] showed a Ki of 93.3 nM.

In turn, `COc1ccccc1N1CCN(CCCc2ccccc2)CC1` had an inhibition constant Ki of 3.72 nM.

For `COc1ccccc1N1CCN(CCCOc2cccc3ccccc23)CC1`, the affinity corresponds to a Ki of 8.91 nM.

For the compound `CCCN(CCC)CC(O)COc1cccc2ccccc12` (stereo unspecified), the Ki was 447 nM.

As to `CCCN(CCCCN1C(=O)CC2(CCCC2)CC1=O)C1COc2cccc(O)c2C1` (stereo in doubt; 258), the affinity corresponds to a Ki of 0.501 nM.

Compound `CN(C)CCCC1(c2ccc(F)cc2)OCc2cc(C#N)ccc21` (stereo unspecified) [CITALOPRAM] showed a Ki of 50100 nM.

As to `c1ccc(N2CCNCC2)cc1` [PHENYLPIPERAZINE], the affinity corresponds to a Ki of 1510 nM.

With `CCCN(CCC)C1COc2ccccc2C1` (stereo unspecified), the Ki is 200 nM.

On to `CCCN(C1COc2cccc(OC)c2C1)N1C(=O)C2CCCC2C1=O` (stereo in doubt; 247), for which the inhibition constant Ki was 1 nM.

As to `FC(F)(F)c1ccc2c(c1)nc(N1CCNCC1)c1cccn12`, the affinity corresponds to a Ki of 18.6 nM.

Regarding `Oc1ccc2cccc(N3CCNCC3)c2c1`, the Ki is 3.31 nM.

For the compound `O=C(NCCN1CCN(/C(O)=C2/COCCO2)CC1)c1ccc(F)cc1`, the Ki was 9.12 nM.

With `COc1ccccc1N1CCNCC1`, the Ki is 12.9 nM.

For the compound `CN(C)CCc1cn(C)c2ccc3c(c12)CCCO3`, the Ki is 2690 nM.

On to `CCCN(CCNC(C)=O)C1COc2cccc(OC)c2C1` (stereo unspecified), for which affinity was put at a Ki of 20 nM.

`CN1CC=C(c2c[nH]c3ccc([N+](=O)[O-])cc23)CC1` showed a Ki of 37.2 nM.

`CCCN(CCC)C1CCc2cccc(C(=O)O)c2C1` (stereo unspecified) gave a Ki of 302 nM.

Take `CCCN(CCCCN1C(=O)CC(C)(C)CC1=O)C1COc2cccc(OC)c2C1` (stereo unspecified): the Ki was 2 nM.

As for `C1=C(c2c[nH]c3ccccc23)CCNC1`, the affinity corresponds to a Ki of 141 nM.

For `CC(C)CN1CCN(c2cccc(Cl)c2)CC1`, affinity was put at a Ki of 64.6 nM.

Compound `CCCCN(CCCC)CC(O)COc1cccc2ccccc12` (stereo unspecified) gave a Ki of 224 nM.

`CNCCc1c[nH]c2ccc(O)cc12`: the affinity, expressed as Ki, was 4.9 nM.

`CCCCCCCCN1CCN(c2ccccc2)CC1` had an inhibition constant (Ki) of 11.2 nM.

`CCCN(CCCCN1C(=O)c2ccccc2C1=O)C1COc2cccc(OC)c2C1` (stereo unspecified) showed a Ki of 2.51 nM.

With `CCCN(CCC)C1COc2cccc(OC)c2C1` (stereo unspecified), the Ki was 10 nM.

`CN1CC=C(c2c[nH]c3ccc(Cl)cc23)CC1` had a Ki of 26.3 nM.

As to `CCCN(CCC)C1CCc2cccc(C)c2C1` (stereo unspecified), the Ki was 61.7 nM.

Regarding `N#Cc1ccc2[nH]cc(C3=CCNCC3)c2c1`, the Ki was 16.2 nM.

The compound `CC(C)NCC(O)COc1cccc2[nH]c(OC(=O)OC(C)C)cc12` (stereo unspecified) gave a Ki of 17.4 nM.

As for `NCCCCN1CCN(c2ccccc2)CC1`, the affinity, expressed as Ki, was 6030 nM.

Take `CCCN(CCC)C1CCc2cccc(OC)c2C1` (stereo unspecified): the Ki is 2.63 nM.

For `COc1ccc2cccc(N3CCN(CCNC(=O)c4cccs4)CC3)c2c1`, the affinity corresponds to a Ki of 0.562 nM.

Regarding `Cc1[nH]c2ccc(O)cc2c1CCN`, the Ki is 2510 nM.

`COc1ccccc1N1CCN(CCCCNCc2ccccc2)CC1` gave a Ki of 60.3 nM.

Turning to `CCCN(C1COc2cccc(OC)c2C1)N1C(=O)C2CCCC2C1=O` (stereo in doubt; 255), the Ki was 0.501 nM.

As for `CCCN(C1COc2cccc(OC)c2C1)N1C(=O)c2ccccc2S1(=O)=O` (stereo unspecified), the affinity corresponds to a Ki of 0.501 nM.

`CCCN(CCC)C1CCc2cccc(C(=O)C3CCCCC3)c2C1` (stereo unspecified): the Ki was 15.8 nM.

`CNCC(O)CO` (stereo unspecified) gave a Ki of 3310 nM.

`CN1CCN(c2cccc3ccoc23)CC1`: the affinity corresponds to a Ki of 7.94 nM.

`CCCCCCCCN1CCN(c2cccc3c2OCCO3)CC1` gave a Ki of 1 nM.

In the case of `Clc1ccc2[nH]cc(C3=CCNCC3)c2c1`, the Ki was 13.2 nM.

In turn, `COc1cccc2c1CC(N1CCCC1)CO2` (stereo unspecified) had a Ki of 3.47 nM.

With `O=C(c1ccccc1)N1CCN(c2cccc(Cl)c2)CC1`, affinity was put at a Ki of 100000 nM.

Compound `CCCN(CCC)C1CCc2cccc(C(=O)OC)c2C1` (stereo unspecified) had a Ki of 1.7 nM.

Compound `CCCN(CCCCN1C(=O)CC2(CCCC2)CC1=O)C1COc2ccccc2C1` (stereo unspecified) gave a Ki of 1 nM.

With `Fc1ccc2[nH]cc(C3=CCNCC3)c2c1`, the affinity corresponds to a Ki of 32.4 nM.

Turning to `O=C1c2ccccc2C(=O)N1CCN1CCN(c2ccccc2)CC1`, the Ki was 10000 nM.

As to `CCCN(CCC)C1CCc2cccc(C(C)=O)c2C1` (stereo unspecified), the Ki was 0.708 nM.

`CC1(C)CC(=O)N(CCCCN2CCN(c3ccccn3)CC2)C(=O)C1` gave a Ki of 70.8 nM.

Consider `CCCN(CCCON1C(=O)CC2(CCCC2)CC1=O)C1COc2cccc(OC)c2C1` (stereo unspecified), for which the Ki is 0.501 nM.

Take `O=C1c2ccccc2S(=O)(=O)N1CCCCN1CCN(c2ccccn2)CC1`: the affinity corresponds to a Ki of 6.92 nM.

The compound `O=C1c2ccccc2C(=O)N1CCCCN1CCN(c2ccccn2)CC1` gave a Ki of 6.17 nM.

`CN1CCN(c2nc3cc(C(F)(F)F)ccc3n3cccc23)CC1` gave a Ki of 9.55 nM.

Take `CCCN(CCCCN1C(=O)CC2(CCCC2)CC1=O)C1COc2cccc(O)c2C1` (stereo in doubt; 228): the affinity corresponds to a Ki of 10 nM.

In the case of `COc1ccccc1N1CCN(CCCCNC2CC3CCC2C3)CC1` (stereo unspecified), the Ki is 3.98 nM.

Compound `COc1ccc2[nH]cc(CCN(C)C)c2c1` [MEBUFOTENIN] showed a Ki of 5.5 nM.

`Cc1ccc(OCC(O)CNC(C)C)c2c1CCC2` (stereo unspecified) gave a Ki of 19100 nM.

`CN(C)CC(O)COc1cccc2ccccc12` (stereo unspecified) had a Ki of 347 nM.

`COc1ccccc1N1CCN(CCN2C(=O)c3ccccc3C2=O)CC1`: the affinity, expressed as Ki, was 1000 nM.

For `CN1CC=C(c2c[nH]c3ccc(N)cc23)CC1`, the affinity corresponds to a Ki of 24500 nM.

The compound `CCCN(CCN1C(=O)c2ccccc2C1=O)C1COc2cccc(OC)c2C1` (stereo unspecified) showed a Ki of 398 nM.

For `CCCN(CCC)C1CCc2cccc(C3CCCCC3)c2C1` (stereo unspecified), the Ki was 24 nM.

For the compound `CCCN(CCNS(=O)(=O)c1ccc(C)cc1)C1COc2cccc(OC)c2C1` (stereo unspecified), the affinity, expressed as Ki, was 1 nM.

Turning to `CC(C)NCC(O)COc1cccc2[nH]ccc12` (stereo unspecified) [PINDOLOL], the Ki is 21.9 nM.

The compound `CCCN(CCCCN1CCOCC1)C1COc2cccc(OC)c2C1` (stereo unspecified) gave a Ki of 3.98 nM.

Regarding `COc1ccccc1N1CCN(CCCCCc2ccccc2)CC1`, the affinity, expressed as Ki, was 5.62 nM.

`CCCN1CC=C(c2c[nH]c3ccc(C(=O)OC)cc23)CC1`: the Ki is 380 nM.

`CC(C)NCC(O)COc1cccc2[nH]c(C#N)cc12` (stereo unspecified): the Ki is 2.14 nM.

`COc1ccccc1N1CCN(CCCN2C(=O)c3ccccc3C2=O)CC1`: the Ki was 20 nM.

For `c1ccc2c(c1)CCC2N1CCN(c2cccc3c2OCCO3)CC1` (stereo unspecified), the Ki was 1.82 nM.

For `O=C1c2ccccc2C(=O)N1CCCCN1CCN(c2ccccc2Cl)CC1`, the Ki is 5.01 nM.

As to `CCCN(CCC)CC(O)CO` (stereo unspecified), the inhibitory constant (Ki) is 2750 nM.

Take `O=C1CC2(CCCC2)CC(=O)N1CCCN1CCN(c2ncccn2)CC1`: the affinity, expressed as Ki, was 214 nM.

`CC(O)CN(CC(C)O)CC(O)COc1cccc2ccccc12` (stereo unspecified) showed a Ki of 1320 nM.

`CN1CC=C(c2c[nH]c3ccc(C4COCCO4)cc23)CC1` (stereo unspecified) had a Ki of 87.1 nM.

The compound `CC(C)(C)NCC(O)COc1cccc2c1SCCC2` (stereo unspecified) [TERTATOLOL] had a Ki of 18.6 nM.

For `CCCN(CCN1C(=O)CC2(CCCC2)CC1=O)C1COc2cccc(OC)c2C1` (stereo unspecified), the affinity, expressed as Ki, was 15.1 nM.

As to `CCCOCOCCc1ccc(OCC(O)CNC(C)C)cc1` (stereo unspecified), the Ki was 10000 nM.

`CCCN(CCCN1C(=O)c2ccccc2C1=O)C1COc2cccc(OC)c2C1` (stereo unspecified) showed a Ki of 50.1 nM.

`O=[N+]([O-])c1ccc2[nH]cc(C3=CCNCC3)c2c1` had a Ki of 18.2 nM.

Take `CC(C)(C)NCC(O)COc1ccc2c(c1)C[C@H](O)[C@H](O)C2` (stereo partly specified): the affinity corresponds to a Ki of 1070 nM.

`O=C1C=CC(c2[nH]c3ccccc3c2C2=CCNCC2)=NC1` showed an inhibitory constant (Ki) of 1510 nM.

Compound `CCCNC1CCc2cccc(OC)c2C1` (stereo unspecified) gave a Ki of 4.79 nM.

`Clc1cccc(N2CCN(C3CC3)CC2)c1` showed a Ki of 158 nM.

Turning to `C=C=CN1CCN(c2cccc(Cl)c2)CC1`, the affinity, expressed as Ki, was 251 nM.

`CCCN(CCC)C1CCc2ccccc2C1` (stereo unspecified): the affinity corresponds to a Ki of 56.2 nM.

In turn, `CC(C)(C)NC[C@H](O)COc1ccccc1C1CCCC1` [PENBUTOLOL] gave a Ki of 2.4 nM.

With `CCCCN1CCN(c2cccc3ccccc23)CC1`, the Ki was 7.08 nM.

Regarding `NCCc1c[nH]c2ccc3c(c12)CCCO3`, the Ki was 302 nM.

Compound `CN1CC=C(c2c[nH]c3ccc(Br)cc23)CC1` had a Ki of 15.1 nM.

Consider `COc1ccccc1N1CCN(CCCCN2C(=O)CC3(CCCC3)CC2=O)CC1`, for which affinity was put at a Ki of 2 nM.

Compound `NCCc1c[nH]c2ccc(C(N)=O)cc12` had a Ki of 0.295 nM.

In turn, `NCCc1c[nH]c2ccc(N)cc12` gave a Ki of 708 nM.

Compound `CC(C)NCC(O)COc1ccccc1-n1cccc1` (stereo unspecified) [ISAMOLTAN] had a Ki of 49 nM.

For `CN(C)CC(O)COc1ccccc1O` (stereo unspecified), the Ki is 4900 nM.

For `C=CCN(CCC)C1CCc2cccc(OS(=O)(=O)C(F)(F)F)c2C1` (stereo unspecified), the Ki was 9.55 nM.
